Assay results taken from patent US20230295142A1, “NOVEL COMPOUNDS AS HISTONE DEACETYLASE 6 INHIBITOR, AND PHARMACEUTICAL COMPOSITION COMPRISING THE SAME” (CHONG KUN DANG PHARMACEUTICAL CORP., priority 2020, published 2023).

How the values were obtained:
[1] = target: HDAC1 (Homo sapiens (Human), UniProt Q13547); test: HDAC1 enzyme activity inhibition (HDAC1 Fluorimetric Drug Discovery Assay Kit); format: biochemical; details: samples at 100, 1000 and 10000 nM; 37° C. 60 minutes
Experimental: (§1) A HDAC enzyme inhibitory capacity of a test material was measured by using HDAC1 Fluorimetric Drug Discovery Assay Kit (Enzolifesciences: BML-AK511) and HDAC6 human recombinant (Calbiochem: 382180). For a HDAC1 assay, samples were treated at a concentration of 100, 1000 and 10000 nM. For a HDAC6 assay, samples were treated at a concentration of 0.1, 1, 10, 100 and 1000 nM. After the above sample treatment, a reaction was continued at 37° C. for 60 minutes, treated with a developer, and subjected to reaction at 37° C. for 30 minutes, after which fluorescence intensity (Ex 390, Em 460) was measured by using FlexStatin3 (Molecular device).

[2] = target: HDAC6 human recombinant (Homo sapiens (Human), UniProt Q9UBN7); test: HDAC6 enzyme activity inhibition (fluorimetric, in vitro); format: biochemical; details: samples at 0.1, 1, 10, 100 and 1000 nM; 37° C. 60 minutes
Sequence of HDAC6 human recombinant (Q9UBN7 whole entry): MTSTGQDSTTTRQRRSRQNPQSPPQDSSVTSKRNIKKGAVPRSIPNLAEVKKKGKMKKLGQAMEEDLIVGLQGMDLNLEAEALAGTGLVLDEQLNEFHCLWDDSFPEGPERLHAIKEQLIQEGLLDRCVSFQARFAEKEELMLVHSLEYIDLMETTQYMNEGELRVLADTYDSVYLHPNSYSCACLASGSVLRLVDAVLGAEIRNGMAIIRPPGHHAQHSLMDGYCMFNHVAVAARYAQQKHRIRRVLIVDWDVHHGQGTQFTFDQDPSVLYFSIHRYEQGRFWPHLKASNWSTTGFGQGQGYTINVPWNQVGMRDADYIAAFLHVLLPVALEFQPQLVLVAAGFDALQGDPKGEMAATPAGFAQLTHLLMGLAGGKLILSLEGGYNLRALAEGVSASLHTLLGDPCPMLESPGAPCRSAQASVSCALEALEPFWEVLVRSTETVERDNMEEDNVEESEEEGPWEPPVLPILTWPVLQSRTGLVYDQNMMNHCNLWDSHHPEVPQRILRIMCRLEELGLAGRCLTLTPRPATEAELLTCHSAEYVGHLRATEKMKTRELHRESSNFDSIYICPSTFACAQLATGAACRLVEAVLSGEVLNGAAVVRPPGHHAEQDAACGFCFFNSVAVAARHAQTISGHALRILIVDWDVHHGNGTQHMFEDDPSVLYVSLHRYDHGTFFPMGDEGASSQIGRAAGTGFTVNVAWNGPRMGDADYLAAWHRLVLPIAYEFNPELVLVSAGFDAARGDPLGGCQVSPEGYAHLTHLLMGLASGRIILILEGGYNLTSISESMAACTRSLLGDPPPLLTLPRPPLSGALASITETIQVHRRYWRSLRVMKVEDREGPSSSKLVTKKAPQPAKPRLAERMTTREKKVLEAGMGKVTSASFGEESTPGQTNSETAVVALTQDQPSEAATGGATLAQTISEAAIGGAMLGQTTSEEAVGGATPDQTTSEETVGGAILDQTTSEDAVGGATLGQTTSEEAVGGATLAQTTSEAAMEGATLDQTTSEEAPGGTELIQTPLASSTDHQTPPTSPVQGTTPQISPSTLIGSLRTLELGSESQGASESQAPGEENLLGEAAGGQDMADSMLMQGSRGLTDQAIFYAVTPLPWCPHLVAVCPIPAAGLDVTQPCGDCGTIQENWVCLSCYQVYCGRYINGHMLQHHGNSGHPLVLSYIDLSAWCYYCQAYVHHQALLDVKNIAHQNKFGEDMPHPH
Experimental: as §1

Sequence of HDAC1 (Q13547 whole entry): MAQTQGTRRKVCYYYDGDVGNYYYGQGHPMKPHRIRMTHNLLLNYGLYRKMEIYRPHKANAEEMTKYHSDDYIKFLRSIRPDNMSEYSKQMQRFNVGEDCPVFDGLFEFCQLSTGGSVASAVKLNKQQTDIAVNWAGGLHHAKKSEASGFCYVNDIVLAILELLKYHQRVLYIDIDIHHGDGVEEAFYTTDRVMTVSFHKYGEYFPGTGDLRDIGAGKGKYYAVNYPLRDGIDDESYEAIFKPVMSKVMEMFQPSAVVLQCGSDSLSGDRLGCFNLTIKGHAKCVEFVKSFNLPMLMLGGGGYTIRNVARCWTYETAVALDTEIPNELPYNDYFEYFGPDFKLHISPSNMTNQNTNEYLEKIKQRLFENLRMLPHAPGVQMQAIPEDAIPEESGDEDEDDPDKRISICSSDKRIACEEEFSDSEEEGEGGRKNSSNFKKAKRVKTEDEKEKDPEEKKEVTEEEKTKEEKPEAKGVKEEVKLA

| IC50 [1] [nM] | IC50 [2] [nM] | Structure (SMILES) |
| --- | --- | --- |
| > 10000 | 241 | CN1CC2(C1)C(=O)N(Cc1ccc(-c3nnc(C(F)F)o3)cn1)C(=O)N2c1ccccc1 [Compound 21, 7-((5-(5-(difluoromethyl)-1,3,4-oxadiazol-2-yl)pyridin-2-yl)methyl)-2-methyl-5-phenyl-2,5,7-triazaspiro[3.4]octan-6,8-dione] |
| > 10000 | 191 | CC(C)N1CC2(C1)C(=O)N(Cc1ccc(-c3nnc(C(F)F)o3)cn1)C(=O)N2c1ccccc1 [Compound 22, 7-((5-(5-(difluoromethyl)-1,3,4-oxadiazol-2-yl)pyridin-2-yl)methyl)-2-isopropyl-5-phenyl-2,5,7-triazaspiro[3.4]octan-6,8-dione] |
| > 10000 | 369 | CC(=O)N1CC2(C1)C(=O)N(Cc1ccc(-c3nnc(C(F)F)o3)cn1)C(=O)N2c1ccccc1 [Compound 23, 2-acetyl-7-((5-(5-(difluoromethyl)-1,3,4-oxadiazol-2-yl)pyridin-2-yl)methyl)-5-phenyl-2,5,7-triazaspiro[3.4]octan-6,8-dione] |

Further lines, the molecule ahead of its results:

| Structure (SMILES) | IC50 [1] [nM] | IC50 [2] [nM] |
| --- | --- | --- |
| CC1(C)C(=O)N(Cc2ccc(-c3nnc(C(F)F)o3)cn2)C(=O)N1c1c(F)cccc1F [Compound 13, 3-((5-(5-(difluoromethyl)-1,3,4-oxadiazol-2-yl)pyridin-2-yl)methyl)-1-(2,6-difluorophenyl)-5,5-dimethylimidazolidin-2,4-dione] | > 10000 | 27 |
| CC1(C)C(=O)N(Cc2ccc(-c3nnc(C(F)F)o3)cn2)C(=O)N1c1ccc(F)cc1F [Compound 14, 3-((5-(5-(difluoromethyl)-1,3,4-oxadiazol-2-yl)pyridin-2-yl)methyl)-1-(2,4-difluorophenyl)-5,5-dimethylimidazolidin-2,4-dione] | > 10000 | 56 |
| CC1(C)C(=O)N(Cc2ccc(-c3nnc(C(F)F)o3)cn2)C(=O)N1c1cccc(F)c1F [Compound 15, 3-((5-(5-(difluoromethyl)-1,3,4-oxadiazol-2-yl)pyridin-2-yl)methyl)-1-(2,3-difluorophenyl)-5,5-dimethylimidazolidin-2,4-dione] | > 10000 | 43 |
| CC1(C)C(=O)N(Cc2ccc(-c3nnc(C(F)F)o3)cn2)C(=O)N1c1ccc(F)c(F)c1 [Compound 16, 3-((5-(5-(difluoromethyl)-1,3,4-oxadiazol-2-yl)pyridin-2-yl)methyl)-1-(3,4-difluorophenyl)-5,5-dimethylimidazolidin-2,4-dione] | > 10000 | 142 |
| CC1(C)C(=O)N(Cc2ccc(-c3nnc(C(F)F)o3)cn2)C(=O)N1c1cc(F)cc(F)c1 [Compound 17, 3-((5-(5-(difluoromethyl)-1,3,4-oxadiazol-2-yl)pyridin-2-yl)methyl)-1-(3,5-difluorophenyl)-5,5-dimethylimidazolidin-2,4-dione] | > 10000 | 69 |
| CC1(C)C(=O)N(Cc2ccc(-c3nnc(C(F)F)o3)cn2)C(=O)N1c1ccccc1 [Compound 18, 3-((5-(5-(difluoromethyl)-1,3,4-oxadiazol-2-yl)pyridin-2-yl)methyl)-5,5-dimethyl-1-phenylimidazolidin-2,4-dione] | > 10000 | 79 |
| CN1CC=C(c2cccc(N3C(=O)N(Cc4ccc(-c5nnc(C(F)F)o5)cn4)C(=O)C3(C)C)c2)CC1 [Compound 19, 3-((5-(5-(difluoromethyl)-1,3,4-oxadiazol-2-yl)pyridin-2-yl)methyl)-5,5-dimethyl-1-(3-(1-methyl-1,2,3,6-tetrahydropyridin-4-yl)phenyl)imidazolidin-2,4-dione] | > 10000 | 85 |
| CN1CCC(c2cccc(N3C(=O)N(Cc4ccc(-c5nnc(C(F)F)o5)cn4)C(=O)C3(C)C)c2)CC1 [Compound 20, 3-((5-(5-(difluoromethyl)-1,3,4-oxadiazol-2-yl)pyridin-2-yl)methyl)-5,5-dimethyl-1-(3-(1-methylpiperidin-4-yl)phenyl)imidazolidin-2,4-dione] | > 10000 | 90 |
